# Values joined by “and” are separate entries in the source; they are usually repeats but may differ in a detail not shown here. Identical values can stand only once.
# Key:
# [1] = system: S. aureus (ATCC 25,923 or ATCC 29213); parameters: method as in PMID 36982955; conditions: earlier work; cited from earlier work
# MRSA (ATCC 43300) [2] = system: MRSA (ATCC 43300); parameters: method as in PMID 36982955; conditions: earlier work; cited from earlier work
# E. coli (ATCC 25922) [3] = system: E. coli (ATCC 25922); parameters: method as in PMID 36982955; conditions: earlier work; cited from earlier work
# [4] = system: P. aeruginosa (ATCC 27853); parameters: method as in PMID 36982955; conditions: earlier work; cited from earlier work
# [5] = system: S. aureus (ATCC 25,923 or ATCC 29213); assay: Antimicrobial MIC, S. aureus; assay type: cell-based, Staphylococcus aureus; conditions: Staphylococcus aureus, mean (n = 3)
# Summary of the method: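 First, the bacterial strains were tested against antibiotics and compounds by the lab's previously described susceptibility method. Then the fungal strains were sent to the Community for Open Antimicrobial Drug Discovery in Australia, which ran its routine antimicrobial evaluation.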
# MRSA (ATCC 43300) [6] = assay: Antimicrobial MIC, MRSA; assay type: cell-based, methicillin-resistant Staphylococcus aureus; conditions: Staphylococcus aureus, MRSA (ATCC 43300); mean (n = 2); read-out: MIC MRSA
# [7] = system: P. aeruginosa (PAO1 or ATCC 27853); assay: Antimicrobial MIC, P. aeruginosa; assay type: cell-based; conditions: Pseudomonas aeruginosa; P. aeruginosa (PAO1 or ATCC 27853); mean (n = 3); read-out: MIC P. a
# Summary of the method: (§1)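 In-house testing to a published method gave the antibacterial MICs, with antibiotics included for comparison; the Candida and Cryptococcus MICs were obtained through CO-ADD's standard screen.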
# E. coli (ATCC 25922) [8] = assay: Antimicrobial MIC, E. coli; assay type: cell-based, Escherichia coli; conditions: mean (n = 2)
# Summary of the method: as §1
# [9] = system: K. pneumoniae (ATCC 700603); assay: Antimicrobial MIC, K. pneumoniae; assay type: cell-based; conditions: Klebsiella pneumoniae, ATCC700603, mean (n = 2)
# [10] = system: A. baumannii (ATCC 19606); assay: Antimicrobial MIC, A. baumannii; assay type: cell-based, Acinetobacter baumannii; conditions: Acinetobacter baumannii, ATCC19606, A. baumannii (ATCC 19606); mean (n = 2)
# C. albicans (ATCC 90028) = assay: Antifungal MIC, C. albicans; assay type: cell-based; conditions: Candida albicans, ATCC90028, mean (n = 2)
# Summary of the method: as §1
# [11] = system: C. neoformans (ATCC 208821); assay: Antifungal MIC, C. neoformans; assay type: cell-based, Cryptococcus neoformans; conditions: Cryptococcus neoformans, ATCC208821, C. neoformans (ATCC 208821); mean (n = 2)
# Summary of the method: as §1
# Cytotoxicity assay = assay type: cell-based, human; conditions: human, HEK293 human embryonic kidney cells, concentration at 50% cytotoxicity on HEK293 cells; mean (n = 2)
# Description: (§2) Cytotoxicity assays were conducted using the protocols previously reported.
# [12] = system: HEK293 human embryonic kidney cells; assay: Cytotoxicity assay; assay type: cell-based; conditions: concentration at 50% cytotoxicity on HEK293 cells; mean (n = 2)
# Description: as §2
# human red blood cells = assay: Hemolytic assay; assay type: cell-based; conditions: concentration at 10% hemolytic activity on human red blood cells; mean (n = 2)
# Description: Hemolysis assays were conducted using the protocols previously reported.
# [13] = system: P. aeruginosa (ATCC 27853); assay: Enhancement of doxycycline activity; assay type: cell-based, Pseudomonas aeruginosa; conditions: for Concentration of test compound required to restore doxycycline activity / Dox/P.a: concentration required to restore doxycycline activity (combination MIC): P. aeruginosa (ATCC 27853); for Dox/P.a: concentration required to restore doxycycline activity (combination MIC): doxycycline fixed at 4.5 µM (2 µg/mL); for Dox/P.a fold change: ratio between intrinsic MIC of test compound and combination MIC, doxycycline 4.5 µM, P. aeruginosa
# E. coli (ATCC 25922) [14] = assay: Enhancement of erythromycin activity; assay type: cell-based, Escherichia coli; conditions: for Eryth/E.c: concentration required to restore erythromycin activity (combination MIC): erythromycin fixed at 10.9 µM (8 µg/mL), E. coli (ATCC 25922); for Eryth/E.c fold change: ratio between intrinsic MIC of test compound and combination MIC, erythromycin 10.9 µM, E. coli
# Description: Restoring enhancer concentrations were determined using previously reported protocols.
# E. coli (ATCC 25922) [15] = assay: Real-time growth inhibition curves / MIC; assay type: cell-based; conditions: Escherichia coli, ATCC25922, 18-hour mark of real-time growth curve
# Description: (§3) To conduct a detailed analysis of the antibacterial activity and initial assessment of the mechanism of action, analogue 20f was selected due to its strong antibacterial properties, and because it was devoid of any observed cytotoxic or hemolytic effects. To evaluate the kinetics of antibacterial activity, real-time growth inhibition curves were measured for two Gram-positive bacteria (S. aureus (ATCC 25923), MRSA (CF-Marseille)) and the Gram-negative bacterium E. coli (ATCC 25922). […] These values corresponded to the inhibitory concentrations observed at the 18-hour mark in the real-time growth inhibition curve plots.
# (§4) Solutions of compound 20f at concentrations of 2, 4, and 16 µg/mL were each tested in triplicate against S. aureus (ATCC 25923), MRSA (CF-Marseille), and E. coli (ATCC 25922) following previously reported protocols.
# S. aureus (ATCC 25923) [16] = assay: Real-time growth inhibition curves / MIC; assay type: cell-based; conditions: Staphylococcus aureus, ATCC25923, 18-hour mark of real-time growth curve
# Description: as §3, §4
# MRSA (CF-Marseille) [17] = assay: Real-time growth inhibition curves / MIC; assay type: cell-based, methicillin-resistant Staphylococcus aureus; conditions: Staphylococcus aureus, 18-hour mark of real-time growth curve
# Description: as §3, §4
# MRSA (CF-Marseille) [18] = assay: Minimum bactericidal concentration test; assay type: cell-based, methicillin-resistant Staphylococcus aureus; conditions: Staphylococcus aureus, same value as MIC
# Description: as §3
# (§5) MBC’s were determined following previously reported protocols.
# E. coli (ATCC 25922) [19] = assay: Minimum bactericidal concentration test; assay type: cell-based; conditions: Escherichia coli, ATCC25922, same value as MIC
# Description: as §3, §5
# S. aureus (ATCC 25923) [20] = assay: Minimum bactericidal concentration test; assay type: cell-based; conditions: Staphylococcus aureus, ATCC25923, same value as MIC
# Description: as §3, §5
# E. coli = system: E. coli; parameters: method as in PMID 15225864; conditions: novobiocin and erythromycin; weak effect; cited from earlier work
# [21] = Escherichia coli, ATCC25922, E. coli (ATCC 25922)
MIC [5],MIC (MRSA (ATCC 43300) [6]),MIC [7],MIC (E. coli (ATCC 25922) [8]; [21]),MIC [9],MIC [10],MIC (C. albicans (ATCC 90028)),MIC [11],Dox/P.a: concentration required to restore doxycycline activity (combination MIC) [13],Eryth/E.c: concentration required to restore erythromycin activity (combination MIC) (E. coli (ATCC 25922) [14]),melting point,SMILES,MIC Staphylococcus aureus [1],MIC MRSA (MRSA (ATCC 43300) [2]),MIC Escherichia coli (E. coli (ATCC 25922) [3]),IC50 (Cytotoxicity assay),Hemolysis HC10 (human red blood cells),Eryth/E.c fold change (E. coli (ATCC 25922) [14]),Dox/P.a fold change [13],further results
–,–,–,–,–,–,–,–,–,–,–,O=C(CC(c1ccccc1)c1ccccc1)NCCCNCCCCCCCCNCCCNC(=O)CC(c1ccccc1)c1ccccc1 [Compound 6],3.13 µM,≤ 0.28 µM,2.2 µM,–,–,–,–,"MIC in combination, doxycycline vs. P. aeruginosa [4]: 12.5 µM; fold increase, doxycycline vs. P. aeruginosa [4]: 4 fold"
–,–,–,–,–,–,–,–,–,–,–,O=C(CC(c1ccccc1)(c1ccccc1)c1ccccc1)NCCCNCCCCCCCCNCCCNC(=O)CC(c1ccccc1)(c1ccccc1)c1ccccc1 [Compound 7],3.13 µM,≤ 0.24 µM,7.6 µM,–,–,–,–,–
34 µM,43.3 µM,677 µM,271 µM,> 43.3 µM,> 43.3 µM,> 43.3 µM,21.7 µM,16.9 µM,4.2 µM,132 to 135 °C,"O=C(NCCCNCCCCNCCCNC(=O)c1ccc2ccccc2c1)c1ccc2ccccc2c1.O=C(O)C(F)(F)F.O=C(O)C(F)(F)F [Compound 19a, N^1,N^4-Bis(3-(2-naphthamido)propyl)butane-1,4-diaminium 2,2,2-trifluoroacetate]",–,–,–,26 µM,>43.3 µM,64 fold,–,IC50 [12]: 26.4 µM; Concentration of test compound required to restore doxycycline activity ([13]; doxycycline concentration 2 µg/mL): 16.9 µM; Concentration of test compound required to restore doxycycline activity ([13]; doxycycline concentration 4 µg/mL): 8.5 µM; Concentration of test compound required to restore doxycycline activity ([13]; doxycycline concentration 6 µg/mL): 8.5 µM; Concentration of test compound required to restore doxycycline activity ([13]; doxycycline concentration 8 µg/mL): 4.2 µM
3.12 µM,≤ 0.25 µM,> 100 µM,6.3 to 12.5 µM,> 32 µM,> 32 µM,> 32 µM,≤ 0.25 µM,12.6 µM,3.15 µM,–,"O=C(CCC(=O)Nc1ccc2ccccc2c1)NCCCNCCCCCCCCCCCCNCCCNC(=O)CCC(=O)Nc1ccc2ccccc2c1.O=C(O)C(F)(F)F.O=C(O)C(F)(F)F [Compound 20f, N^1,N^12-Bis(3-(4-(naphthalen-2-ylamino)-4-oxobutanamido)propyl)dodecane-1,12-diaminium 2,2,2-trifluoroacetate]",–,–,–,> 32.2 µM,>32.2 µM,2 fold,> 8 fold,MIC (E. coli (ATCC 25922) [8]; E. coli (ATCC 25922)): 6.3 µM; MIC (E. coli (ATCC 25922) [15]): 6.29 µM and 6.25 µg/mL; MIC (S. aureus (ATCC 25923) [16]): 3.15 µM and 3.13 µg/mL; MIC (MRSA (CF-Marseille) [17]): 3.15 µM and 3.13 µg/mL; MBC (MRSA (CF-Marseille) [18]): 3.13 µg/mL and 3.15 µM; MBC (E. coli (ATCC 25922) [19]): 6.29 µM and 6.25 µg/mL; MBC (S. aureus (ATCC 25923) [20]): 3.15 µM and 3.13 µg/mL
300 µM,0.246 µM,300 µM,300 µM,> 31.5 µM,> 31.5 µM,31.5 µM,15.7 µM,300 µM,300 µM,184 to 186 °C,"O=C(CCC(=O)Nc1ccc(-c2ccccc2)cc1)NCCCNCCCCCCCCCCNCCCNC(=O)CCC(=O)Nc1ccc(-c2ccccc2)cc1.O=C(O)C(F)(F)F.O=C(O)C(F)(F)F [Compound 21e, N^1,N^10-Bis(3-(4-([1,1’-biphenyl]-4-ylamino)-4-oxobutanamido)propyl)decane-1,10-diaminium 2,2,2-trifluoroacetate]",–,–,–,> 31.5 µM,6.3 µM and 6.32 µM,1 fold,1 fold,–
–,–,–,–,–,–,–,–,–,–,–,"NCCCNCCCCNCCCNC(=O)Cc1cccc2ccccc12 [Compound 22, naphthylacetylspermine]",–,–,–,–,–,–,–,doses rendering E. coli sensitive to hydrophobic antibiotics (E. coli): 64 to 128 µg/mL

# Source: publication PMC10294832, “Investigation of Naphthyl–Polyamine Conjugates as Antimicrobials and Antibiotic Enhancers” (Antibiotics, 2023)
